In PubChem BioAssay AID179 (DTP/NCI, 2004):
Active and inactive are the calls of the source.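 The calls were made as follows: active = compounds giving half or more protection of infected cells from virus-caused growth loss, again on retest; inactive = the rest.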

Tested on: CEM cells HIV-1 protection, formazan growth assay
Assay: NCI AIDS Antiviral Assay
Conditions: for IC50: measured here: growth of uninfected CEM cells
Summary of the method: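 Human CEM cells, uninfected and HIV-1-infected, exposed to five drug concentrations; growth measured by soluble formazan assay and scored as percent protection from infection, with protecting compounds retested.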

Row | Structure (SMILES) | outcome | EC50 [µM] | IC50 [µM]
1 | COc1cccc2c1C(=O)c1c(O)c3c(c(O)c1C2=O)C[C@@](O)(C(C)=O)C[C@@H]3OC1CC(N(Cc2ccccc2)Cc2ccccc2)C(O)C(C)O1 (some centres not stated) | inactive | – | –
2 | COC(=O)C(CC1CC(OC(C)=O)c2[nH]c3ccccc3c2CCN(C(C)=O)C1)C(=O)OC (configuration not stated) | – | > 135 | > 135
3 | COC(=O)/C(=N\N)C(C(=O)C(=O)Nc1nc(=S)[nH][nH]1)c1nc2ccc([N+](=O)[O-])cc2[nH]c1=O (configuration not stated) | – | > 75.9 | > 75.9
4 | O=C(O)c1ccc(Nc2nc3ccccc3nc2C(=O)O)cc1 | – | > 200 | > 200
5 | CCOC(=O)C(NC(=O)CC)(Nc1ccc(F)cc1F)C(F)(F)F (configuration not stated) | – | > 200 | > 200
6 | c1ccc2c(c1)[nH]c1nc3cc(-c4ccc5nc6c(nc5c4)[nH]c4ccccc46)ccc3nc12 | – | > 200 | 110
7 | N#Cc1cccc(N2C(=O)C3C4C=CC(C3C2=O)C2C(=O)N(c3cccc(C#N)c3)C(=O)C42)c1 (configuration not stated) | inactive | – | –
8 | CN1C2C=CC1c1c(C3=NC(C)(C)CO3)cccc12 (configuration not stated) | – | > 200 | > 200
9 | O=C1CCc2nc3ccccc3c(=O)n21 | – | > 1260 | > 1260
10 | O=S(=O)(O)c1cc(N/N=C/c2cc(S(=O)(=O)O)c3cccnc3c2O)ccc1/C=C/c1ccc(N/N=C/c2cc(S(=O)(=O)O)c3cccnc3c2O)cc1S(=O)(=O)O | – | 13.5 | 129
11 | Clc1cccc(Cl)c1C=NC12CC3CC(CC(C3)C1)C2 | – | > 200 | > 200
12 | CCc1ccccc1NC(=O)Nc1cc(C)ccn1 | – | > 200 | 24
13 | CCCCCCCCCCCCCCC(C(=O)O)S(=O)(=O)O (configuration not stated) | – | > 200 | 155
14 | C[C@H]1OCN2C(=O)c3ccccc3SC(=O)[C@H]12 | – | > 200 | > 200
15 | O=C(O)c1ccc(S(=O)(=O)O)o1 | – | > 200 | > 200
16 | COc1ccc2nc3c([N+](=O)[O-])ccc4c3c(c2c1)N=CN4CCN(C)C | – | > 100 | 1.02
17 | CCc1cccc(C)c1NC(C)=O | inactive | – | –

Row | Structure (SMILES) | outcome | EC50 [µM] | IC50 [µM]
18 | CCC1CC2CC3c4[nH]c5ccc(OC)cc5c4CCN(C2)C13 (configuration not stated) | inactive | – | –
19 | O=C(Nc1c(Cl)cc([N+](=O)[O-])cc1Cl)C(=O)C(C(=O)c1ccncc1)C1OC(=O)c2ccccc21 (configuration not stated) | inactive | – | –
20 | NC(N)=NS(=O)(=O)c1ccc(NC(=O)c2cccc3c(NNc4ccc(S(N)(=O)=O)cc4)c4ccccc4nc23)cc1 | – | > 200 | 28.2
21 | CC(=O)NC(=O)C(C(C)=O)c1ccccc1 (configuration not stated) | – | > 1150 | > 1150
22 | O=C(Nc1ccc(Cl)cc1)c1cc(S(=O)(=O)Nc2nc3ncccc3[nH]2)c(SSc2cc(Cl)c(C(=O)Nc3ccc(Cl)cc3)cc2S(=O)(=O)Nc2nc3ncccc3[nH]2)cc1Cl | – | > 200 | > 200
23 | Cc1cc2c(C(C)C)c(O)c(O)c(C=Nc3cccc(C(F)(F)F)c3)c2c(O)c1-c1c(C)cc2c(C(C)C)c(O)c(O)c(C=Nc3cccc(C(F)(F)F)c3)c2c1O | inactive | – | –
24 | CC(=O)c1nc(C#N)c(N)o1 | inactive | – | –
25 | O=C(Nc1ccccc1)N1CC2(CN1)CNN(C(=O)Nc1ccccc1)C2 | – | > 182 | > 182
26 | COc1cc(C2C3=C(COC3=O)Oc3cc4c(cc32)OCO4)cc(OC)c1OC(C)=O (configuration not stated) | – | > 0.2 | 0.0324
27 | COC[C@@H](N=Cc1ccc([N+](=O)[O-])cc1)C(C)C | – | > 200 | 67.6
28 | O=CC[C@H]1C=Cc2ccccc2[C@@]12C=CC(=O)CC2 | – | > 28.8 | 21.9
29 | Cc1cc(O)c2c(c1)C(=O)C=CC2=O | inactive | – | –
30 | C[C@H](O)CCC(=O)c1ccoc1 | – | > 1480 | > 1480
31 | CC(=O)NCCCCN(CCCNC(C)=O)C(=O)OCc1ccccc1 | – | > 200 | > 200
32 | CC(C)(C)OC(=O)C1C(=O)C(C(=O)OC(C)(C)C)C23CCCCC12C(C(=O)OC(C)(C)C)C(=O)C3C(=O)OC(C)(C)C (configuration not stated) | – | > 30.2 | > 30.2
33 | Cc1ccc(S(=O)(=O)N=NC=C2c3ccccc3N(O)c3ccccc32)cc1 | inactive | – | –
